Assay results from PubChem BioAssay AID248 (DTP/NCI, 2004).
Several values for one entry are separate records, joined by “and”; a condition that tells them apart may be missing. Equal values may be shown once. Inconclusive results and toxic doses are left out.

Tested on: L1210 leukemia ip in BDF1 mice, survival T/C
Test: NCI In Vivo Anticancer Drug Screen. Data for tumor model L1210 Leukemia (intraperitoneal) in B6D2F1 (BDF1) mice
Settings: endpoint: mean survival time, higher = longer survival
In short: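 In this screen, tumor-bearing mice given compound are compared to those given vehicle, and their survival values are reported as a treated-to-control quotient.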

[1] = dose: 100.0 mg/kg/injection, schedule: Q04DX003 (ip), vehicle: saline
[2] = dose: 100.0 mg/kg/injection, schedule: Q04DX003 (ip), vehicle: saline sonified
[3] = dose: 200.0 mg/kg/injection, schedule: Q04DX003 (ip), vehicle: saline sonified
[4] = dose: 400.0 mg/kg/injection, schedule: Q04DX003 (ip), vehicle: saline sonified
[5] = dose: 200.0 mg/kg/injection, schedule: Q04DX003 (ip), vehicle: saline
[6] = dose: 100.0 mg/kg/injection, schedule: Q01DX009 (ip), vehicle: Klucel (hydroxypropylcellulose) (HPC)
[7] = dose: 200.0 mg/kg/injection, schedule: Q01DX009 (ip), vehicle: Klucel (hydroxypropylcellulose) (HPC)
[8] = dose: 400.0 mg/kg/injection, schedule: Q01DX009 (ip), vehicle: Klucel (hydroxypropylcellulose) (HPC)
[9] = dose: 100.0 mg/kg/injection, schedule: Q04DX003 (ip), vehicle: Klucel (hydroxypropylcellulose) (HPC)
[10] = dose: 200.0 mg/kg/injection, schedule: Q04DX003 (ip), vehicle: Klucel (hydroxypropylcellulose) (HPC)
[11] = dose: 400.0 mg/kg/injection, schedule: Q04DX003 (ip), vehicle: Klucel (hydroxypropylcellulose) (HPC)

SMILES: CC(C)N(Cl)S(C)(=O)=O
- T/C [1]: 89 % of control

SMILES: O=C(O)/C=N/OCc1cc2c(cc1Cl)OCO2
- T/C [2]: 95 % of control
- T/C [3]: 92 % of control
- T/C [4]: 94 % of control

SMILES: COC(=O)C1C2C=CC(CC2)C1(C)C(=O)OC (stereo not given)
- T/C (dose: 100.0 mg/kg/injection, schedule: Q04DX003 (ip), vehicle: saline with Tween-80): 95 % of control
- T/C (dose: 200.0 mg/kg/injection, schedule: Q04DX003 (ip), vehicle: saline with Tween-80): 101 % of control
- T/C (dose: 400.0 mg/kg/injection, schedule: Q04DX003 (ip), vehicle: saline with Tween-80): 90 % of control

SMILES: O=C(O)c1ccnc(-c2ccc(Cl)cc2)c1
- T/C [1]: 90 % of control
- T/C [5]: 92 % of control

SMILES: CCN(CC)CCNc1ccc(C)c2sc3ccccc3c(=O)c12 (tested in a mixture with another compound)
- T/C (dose: 6.0 mg/kg/injection, schedule: Q01DX009 (ip), vehicle: carboxymethylcellulose (CMC)): 102 % of control
- T/C (dose: 12.0 mg/kg/injection, schedule: Q01DX009 (ip), vehicle: carboxymethylcellulose (CMC)): 98 % of control
- T/C (dose: 17.0 mg/kg/injection, schedule: Q01DX015 (ip), vehicle: saline): 102 % of control
- T/C (dose: 25.0 mg/kg/injection, schedule: Q01DX009 (ip), vehicle: carboxymethylcellulose (CMC)): 109 % of control
- T/C (dose: 26.0 mg/kg/injection, schedule: Q01DX015 (ip), vehicle: carboxymethylcellulose (CMC)): 108 % of control
- T/C (dose: 26.0 mg/kg/injection, schedule: Q01DX015 (ip), vehicle: saline): 101 % of control
- T/C (dose: 35.0 mg/kg/injection, schedule: Q01DX009 (ip), vehicle: saline): 102 % of control
- T/C (dose: 39.0 mg/kg/injection, schedule: Q01DX015 (ip), vehicle: carboxymethylcellulose (CMC)): 110 % of control
- T/C (dose: 40.0 mg/kg/injection, schedule: Q01DX015 (ip), vehicle: saline): 113 % of control and 118 % of control
- T/C (dose: 59.0 mg/kg/injection, schedule: Q01DX015 (ip), vehicle: carboxymethylcellulose (CMC)): 116 % of control
- T/C (dose: 75.0 mg/kg/injection, schedule: Q01DX009 (ip), vehicle: saline): 104 % of control
- T/C (dose: 89.0 mg/kg/injection, schedule: Q01DX015 (ip), vehicle: saline): 202 % of control
- T/C (dose: 133.0 mg/kg/injection, schedule: Q01DX009 (ip), vehicle: carboxymethylcellulose (CMC)): 123 % of control
- T/C (dose: 175.0 mg/kg/injection, schedule: Q01DX001 (ip), vehicle: saline): 100 % of control
- T/C (dose: 200.0 mg/kg/injection, schedule: Q01DX015 (ip), vehicle: saline): 112 % of control
- T/C (dose: 265.0 mg/kg/injection, schedule: Q01DX001 (ip), vehicle: saline): 105 % of control
- T/C (dose: 300.0 mg/kg/injection, schedule: Q01DX015 (ip), vehicle: carboxymethylcellulose (CMC)): 91 % of control
- T/C (dose: 400.0 mg/kg/injection, schedule: Q01DX001 (ip), vehicle: saline): 122 % of control

SMILES: COC1=CCC2=C(CCO2)C1
- T/C (dose: 100.0 mg/kg/injection, schedule: Q04DX003 (ip), vehicle: acetone): 95 % of control
- T/C (dose: 200.0 mg/kg/injection, schedule: Q04DX003 (ip), vehicle: acetone): 95 % of control
- T/C (dose: 400.0 mg/kg/injection, schedule: Q04DX003 (ip), vehicle: acetone): 96 % of control

SMILES: O=C(Nc1ccc(F)cc1)Nc1ccc(I)cc1
- T/C [6]: 100 % of control and 92 % of control
- T/C [7]: 100 % of control
- T/C [8]: 96 % of control and 90 % of control

SMILES: Cc1ccc(C)n1-c1ccccc1C(=O)O
- T/C [6]: 95 % of control
- T/C [9]: 93 % of control
- T/C [7]: 107 % of control
- T/C [10]: 106 % of control
- T/C [8]: 101 % of control
- T/C [11]: 101 % of control

SMILES: Nc1ncnc(N)c1N
- T/C (dose: 100.0 mg/kg/injection, schedule: Q01DX001 (ip), vehicle: saline with Tween-80): 104 % of control
- T/C (dose: 200.0 mg/kg/injection, schedule: Q01DX001 (ip), vehicle: saline with Tween-80): 105 % of control
- T/C (dose: 400.0 mg/kg/injection, schedule: Q01DX001 (ip), vehicle: saline with Tween-80): 98 % of control

SMILES: O=C(CNC(=O)Nc1nccs1)N/N=C/c1cccc([N+](=O)[O-])c1
- T/C [6]: 97 % of control
- T/C [7]: 100 % of control and 90 % of control
- T/C [8]: 97 % of control

SMILES: O=C(Nc1cc(C(F)(F)F)ccc1Cl)c1ccc(Cl)cc1Cl
- T/C (dose: 100.0 mg/kg/injection, schedule: Q01DX009 (sc), vehicle: olive oil, sesame oil, peanut oil): 104 % of control
- T/C (dose: 100.0 mg/kg/injection, schedule: Q04DX003 (sc), vehicle: olive oil, sesame oil, peanut oil): 106 % of control
- T/C (dose: 200.0 mg/kg/injection, schedule: Q01DX009 (sc), vehicle: olive oil, sesame oil, peanut oil): 113 % of control
- T/C (dose: 200.0 mg/kg/injection, schedule: Q04DX003 (sc), vehicle: olive oil, sesame oil, peanut oil): 101 % of control
- T/C (dose: 400.0 mg/kg/injection, schedule: Q01DX009 (sc), vehicle: olive oil, sesame oil, peanut oil): 107 % of control
- T/C (dose: 400.0 mg/kg/injection, schedule: Q04DX003 (sc), vehicle: olive oil, sesame oil, peanut oil): 101 % of control

SMILES: CC1NC1C (stereo not given)
- T/C (dose: 45.0 mg/kg/injection, schedule: Q04DX003 (ip), vehicle: saline): 102 % of control
- T/C (dose: 90.0 mg/kg/injection, schedule: Q04DX003 (ip), vehicle: saline): 98 % of control
- T/C (dose: 100.0 mg/kg/injection, schedule: Q01DX009 (ip), vehicle: saline): 103 % of control
- T/C [1]: 108 % of control
- T/C (dose: 180.0 mg/kg/injection, schedule: Q04DX003 (ip), vehicle: saline): 107 % of control
- T/C (dose: 200.0 mg/kg/injection, schedule: Q01DX009 (ip), vehicle: saline): 108 % of control
- T/C [5]: 114 % of control
- T/C (dose: 400.0 mg/kg/injection, schedule: Q01DX009 (ip), vehicle: saline): 103 % of control
- T/C (dose: 400.0 mg/kg/injection, schedule: Q04DX003 (ip), vehicle: saline): 119 % of control

SMILES: COc1ccc(C(=O)CC(C)C(=O)O)c(O)c1C (stereo not given)
- T/C [9]: 95 % of control
- T/C [10]: 98 % of control
- T/C [11]: 96 % of control

SMILES: O=C(O)C1CCCN1C(=O)Cc1ccc2c(c1)OCO2 (stereo not given)
- T/C (dose: 75.0 mg/kg/injection, schedule: Q01DX009 (ip), vehicle: Klucel (hydroxypropylcellulose) (HPC)): 96 % of control
- T/C (dose: 100.0 mg/kg/injection, schedule: Q01DX001 (ip), vehicle: Klucel (hydroxypropylcellulose) (HPC)): 98 % of control
- T/C (dose: 150.0 mg/kg/injection, schedule: Q01DX009 (ip), vehicle: Klucel (hydroxypropylcellulose) (HPC)): 93 % of control
- T/C (dose: 200.0 mg/kg/injection, schedule: Q01DX001 (ip), vehicle: Klucel (hydroxypropylcellulose) (HPC)): 95 % of control
- T/C (dose: 300.0 mg/kg/injection, schedule: Q01DX009 (ip), vehicle: Klucel (hydroxypropylcellulose) (HPC)): 98 % of control
- T/C (dose: 400.0 mg/kg/injection, schedule: Q01DX001 (ip), vehicle: Klucel (hydroxypropylcellulose) (HPC)): 92 % of control

SMILES: COc1ccc(OC)c(NC(=O)Nc2ccc(C(=O)O)c(O)c2)c1
- T/C [6]: 91 % of control
- T/C [7]: 103 % of control
- T/C [8]: 97 % of control

SMILES: CC1(C)N=C(N)Nc2nnc(-c3ccc(F)cc3)n21
- T/C [2]: 89 % of control
- T/C [3]: 101 % of control
- T/C [4]: 89 % of control
